Experimental data published in US10925857B2, “Rational drug design targeting resistant gram-negative bacterial infections to polymyxin-class antibiotics” (The Trustees of Columbia University in the City of New York, priority 2015, dated 2021).

Assays:
E. coli BL21 strain = assay: Control polymyxin growth assay, BL21 strain; type: cell-based, Escherichia coli; conditions: E. coli BL21, endogenous E. coli ArnT gene
Excerpt: (§1) E. coli BL21 strain is used to test efficacy of tested compounds towards the E. coli ArnT protein. […] Gi24 is E. coli BL21 ΔArnT that has been transformed with the plasmid pGi24 that expresses the wt Salmonella typhimurium ArnT. […] The Gi24 strain is used to test efficacy of tested compounds towards the Salmonella typhimurium ArnT protein.
(§2) Three strains were used for the implementation of the polymyxin B growth assay for compound screening in a 96-well plate format: (1) BL21 (DE3) E. coli strain (referred to as BL21). […] E. coli BL21 strain is used to test efficacy of tested compounds towards the E. coli ArnT protein. (2) E. coli BL21(DE3) ΔArnT the endogenous E. coli ArnT gene has been deleted, thus rendering the E. coli BL21 ΔArnT strain sensitive to polymyxin B (referred to as ΔArnT). (3) E. coli BL21(DE3) ΔArnT that has been transformed with the plasmid pGi24 that expresses the wt Salmonella typhimurium ArnT (referred to as Gi24). […]
(§3) Overnight cultures of the three strains were used to inoculate LB media containing 100 μg/ml Ampicillin alone (PMXB−) or 100 μg/ml and 3 μg/ml Polymyxin B (PMXB+) at 1:2000 dilution, as appropriate. […] The 96-well plate was transferred to an Epoch 2 microplate reader (Biotek) and shaken continuously at 37° C. Growth was continuously quantitated spectrophotometrically at 600 nm. […]

[1] = test system: E. coli BL21 ΔArnT strain; assay: Control polymyxin growth assay, BL21 ΔArnT strain; type: cell-based, Escherichia coli; conditions: endogenous ArnT gene deleted
Excerpt: as §1, §2, §3

[2] = test system: Gi24 strain (E. coli BL21 ΔArnT expressing wt Salmonella typhimurium ArnT); assay: Control polymyxin growth assay, Gi24 strain; type: cell-based, Escherichia coli; conditions: Gi24: BL21 ΔArnT with plasmid pGi24 expressing wt S. typhimurium ArnT
Excerpt: as §1, §2, §3

E. coli ArnT = molecular target: T1, E. coli ArnT (Escherichia coli, UniProt P76473); assay: Polymyxin B growth assay for compound screening, BL21 strain; type: cell-based; conditions: E. coli BL21 strain carrying E. coli ArnT; compound 0.5 mM; 3 μg/ml Polymyxin B; OD 600 nm
T1 construct: it carries the endogenous E. coli ArnT gene; endogenous in cells; host or cells: E. coli BL21(DE3)
T1 sequence (P76473 whole entry): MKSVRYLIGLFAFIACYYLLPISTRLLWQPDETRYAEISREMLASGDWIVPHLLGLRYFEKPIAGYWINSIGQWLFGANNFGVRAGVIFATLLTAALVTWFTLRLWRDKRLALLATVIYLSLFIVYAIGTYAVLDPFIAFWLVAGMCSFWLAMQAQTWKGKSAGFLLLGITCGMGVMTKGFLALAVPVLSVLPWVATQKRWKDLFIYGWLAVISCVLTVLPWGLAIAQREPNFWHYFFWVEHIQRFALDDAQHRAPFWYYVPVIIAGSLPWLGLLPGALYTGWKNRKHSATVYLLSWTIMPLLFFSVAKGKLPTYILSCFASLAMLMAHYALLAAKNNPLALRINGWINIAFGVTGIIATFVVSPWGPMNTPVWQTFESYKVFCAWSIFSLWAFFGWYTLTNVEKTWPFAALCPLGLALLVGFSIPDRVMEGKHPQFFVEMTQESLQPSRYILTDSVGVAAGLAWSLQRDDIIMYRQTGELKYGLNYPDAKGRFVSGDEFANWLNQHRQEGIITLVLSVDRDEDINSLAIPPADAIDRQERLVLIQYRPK
Excerpt: (§4) FIGS. 8A-J show graphic results of the polymyxin growth assay for the five Class I compounds obtained in target-based virtual screening. In this and all subsequent figures showing results of compound testing in the polymyxin growth assay, four curves are shown, (i) growth of test strain (BL21 for targeting E. coli ArnT or Gi24 for targeting S. typhimurium ArnT) in the absence of PMXB (−PMXB, represented by an open circle), (ii) growth of test strain in the presence of PMXB (+PMXB, represented by an open square), (iii) growth of test strain in the absence of PMXB and in the presence of test compound (−PMXB+Cmpd, represented by open diamond), and (iv) growth of test strain in the presence of PMXB and test compound (+PMXB+Cmpd, represented by an […]). Each point in the curves represents the mean of six measurements of absorbance (OD) at 600 nm (triplicate samples from two independent experiments). Standard deviation is not shown, but typically ranged from 0.001 to 0.1. Growth of E. coli BL21 strain (carrying the E. coli ArnT) was measured in the presence of Class I compounds 20, 14, 15, 19, or U2 (FIGS. 8A, 8C, SE, 8G and 8I, respectively). Growth of E. coli Gi24 strain (carrying the S. typhimurium ArnT) was measured in the presence of Class I compounds 20, 14, 15, 19, or U2 (FIGS. 8B, 8D, 8F, 8H and 8J, respectively). […]

[3] = molecular target: T2, Salmonella typhimurium ArnT (Salmonella typhimurium, UniProt O52327); assay: Polymyxin B growth assay for compound screening, Gi24 strain; type: cell-based; conditions: E. coli Gi24 strain carrying S. typhimurium ArnT; compound 0.5 mM; 3 μg/ml Polymyxin B; OD 600 nm
T2 construct: expressed in transfected cells; host or cells: E. coli BL21(DE3) ΔArnT transformed with plasmid pGi24 (strain Gi24)
Excerpt: as §4

Row | Molecule | growth of strain in the presence of PMXB (E. coli BL21 strain) | growth of strain in the presence of PMXB [1] | growth of strain in the presence of PMXB [2] | ArnT inhibiting activity (retardation of growth of polymyxin resistant strain in the presence of PMXB) (E. coli ArnT) | ArnT inhibiting activity (retardation of growth of polymyxin resistant strain in the presence of PMXB) [3]
1 | polymyxin B | inherently resistant | absence of growth | growth of Gi24 strain in the presence of PMXB | – | –
2 | Cc1[nH]nc(O)c1C(c1ccc(Cl)cc1)c1c(O)n[nH]c1C [Compound 20, 4-[(4-chlorophenyl)-(3-methyl-5-oxo-1,2-dihydropyrazol-4-yl)methyl]-5-methyl-1,2-dihydropyrazol-3-one] | – | – | – | especially strong ArnT inhibiting activity | especially strong ArnT inhibiting activity
